Results reported in patent publication US6518257B1, “1-substituted phenyl-1-(1h-imidazol-4-yl) alcohols, process for producing the same and use thereof” (Takeda Chemical Industries, Ltd., priority 1999, dated 2003).

Experiments:
Rat Steroid C17,20-lyase = target: T1, Rat Steroid C17,20-lyase (Rattus norvegicus, UniProt P11715); assay: Assay of inhibitory activity on rat steroid C17,20-lyase (testis microsomes, [1,2-3H]-17-α-hydroxyprogesterone substrate, TLC); format: biochemical; details: rat testis microsomes (7 μg/10 μl), 10 nM [1,2-3H]-17-α-hydroxyprogesterone, NADPH, pH 7.4, 37° C., 7 minutes; products androstenedione and testosterone
T1 construct: Testes were excised from 13-week-old male SD rats, homogenized, and centrifuged to give microsomes; from tissue; host or cells: testis microsomes of 13-week-old male SD rats
T1 sequence (P11715 1-507): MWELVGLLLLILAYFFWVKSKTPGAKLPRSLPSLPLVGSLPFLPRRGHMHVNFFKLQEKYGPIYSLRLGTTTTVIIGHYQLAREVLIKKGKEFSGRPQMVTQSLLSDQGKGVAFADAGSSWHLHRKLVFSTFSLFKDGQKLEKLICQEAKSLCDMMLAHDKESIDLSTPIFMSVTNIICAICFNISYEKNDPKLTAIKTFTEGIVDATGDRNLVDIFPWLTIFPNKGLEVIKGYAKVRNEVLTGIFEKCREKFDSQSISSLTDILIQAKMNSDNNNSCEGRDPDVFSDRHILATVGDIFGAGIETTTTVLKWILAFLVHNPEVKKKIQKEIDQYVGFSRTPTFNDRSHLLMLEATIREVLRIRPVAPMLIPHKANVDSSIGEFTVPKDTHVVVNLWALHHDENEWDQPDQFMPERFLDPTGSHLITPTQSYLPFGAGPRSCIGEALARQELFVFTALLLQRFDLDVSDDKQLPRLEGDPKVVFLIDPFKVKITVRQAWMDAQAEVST
Experimental: Assay of Inhibitory Activity on Rat Steroid C17,20-lyase
The activity was determined according to The Prostate, vol. 26, 140-150 (1995).
Testes were excised from 13-week-old male SD rats, homogenized, and centrifuged to give microsomes. [1,2-^3H]-17-α-hydroxyprogesterone having a final concentration of 10 nM, NADPH solution and test compounds were dissolved in 10 μl of 100 mM phosphate buffer (pH 7.4) and microsome protein (7 μg/10 μl) was added. The reaction mixture was incubated at 37° C. for 7 minutes. Ethyl acetate (40 μl) was added and the mixture was centrifuged. The substrate and the products (androstenedione and testosterone) in the supernatant were separated by silica gel thin layer chromatography (TLC). The spots were detected and quantitatively determined by BAS 2000 Bioimage analyzer. The concentration of the test compounds necessary to reduce the amount of the products by 50% (IC50) relative to the amount of the products without test compound (control) as 100% was calculated, and shown in Table 1.

[1] = test system: Testosterone Synthesis in Rats; assay: Assay of inhibitory activity on testosterone synthesis in rats (serum testosterone by radioimmunoassay); format: in vivo, rat; details: 50 mg/kg orally, 9-week-old male SD rats, serum testosterone two hours after administration, as percentage of control group
Experimental: Assay of Inhibitory Activity on Testosterone Synthesis in Rats
Test compounds (50 mg/kg) were orally administered to 9-week-old male SD (Sprague Dawley) rats. Two hours after administration of the compounds, blood was drawn and testosterone concentration in the obtained serum was measured by radioimmunoassay. The percentage (T/C, %) of the testosterone concentration of test compounds administration group to that of the control group was calculated, and taken as the inhibitory activity on testosterone synthesis.

IC50 (Rat Steroid C17,20-lyase) [µM] | Structure (SMILES) | testosterone synthesis inhibitory activity (T/C, %) [1] [%]
0.01 | COc1ccc(-c2cccc(C(O)(c3c[nH]cn3)C(C)C)c2)cc1 (stereo not drawn) [Example 9, 1-(1H-imidazol-4-yl)-1-(4′-methoxy[1,1′-biphenyl]-3-yl)-2-methyl-1-propanol] | 4.6
0.011 | CCC(O)(c1cccc(-c2ccc(F)cc2)c1)c1c[nH]cn1 (stereo not drawn) [Example 27, 1-[4′-fluoro[1,1′-biphenyl]-3-yl]-1-(1H-imidazol-4-yl)-1-propanol] | –
0.012 | Cc1ccccc1-c1cccc(C(O)(c2c[nH]cn2)C(C)C)c1 (stereo not drawn) [Example 17, 1-(1H-imidazol-4-yl)-2-methyl-1-(2′-methyl[1,1′-biphenyl]-3-yl)-1-propanol] | –
0.0083 | CC(C)C(O)(c1cccc(-c2ccc(F)cc2)c1)c1c[nH]cn1 (stereo not drawn) [Example 13, 1-(4′-fluoro[1,1′-biphenyl]-3-yl)-1-(1H-imidazol-4-yl)-2-methyl-1-propanol] | 4.7
0.015 | CC(C)C(O)(c1cccc(-c2ccccc2)c1)c1c[nH]cn1 (stereo not drawn) [Example 6, 1-[1,1′-biphenyl]-3-yl-1-(1H-imidazol-4-yl)-2-methyl-1-propanol] | 4.3
0.028 | CC(C)C(O)(c1ccc(-c2ccc(F)cc2)cc1)c1c[nH]cn1 (stereo not drawn) [Example 4, 1-(4′-fluoro[1,1′-biphenyl]-4-yl)-1-(1H-imidazol-4-yl)-2-methyl-1-propanol] | –
